Test results published in PubChem BioAssay (NCI).
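96-well plates; 48 h exposure; 5 concentrations. Endpoints by linear interpolation between flanking doses. Not reached: highest tested concentration assigned. GI50 marks 50% less growth. The concentration for full growth arrest is given as TGI.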

Experiments:
Assay in all cases: growth of human tumour cells (NCI), 48 h; in the data active = GI50 below about 0.43 µM; inactive = the rest
786-0 renal = tested on: 786-0 renal
A549 NSCLC = tested on: A549 NSCLC
CAKI-1 renal = tested on: CAKI-1 renal
CCRF-CEM leukemia = tested on: CCRF-CEM leukemia
COLO 205 colon = tested on: COLO 205 colon
DU-145 prostate = tested on: DU-145 prostate
EKVX NSCLC = tested on: EKVX NSCLC
HCC-2998 colon = tested on: HCC-2998 colon
HCT-15 colon = tested on: HCT-15 colon
HL-60(TB) leukemia = tested on: HL-60(TB) leukemia
HOP-62 NSCLC = tested on: HOP-62 NSCLC
HT29 colon = tested on: HT29 colon
IGROV1 ovarian = tested on: IGROV1 ovarian
K-562 leukemia = tested on: K-562 leukemia
KM12 colon = tested on: KM12 colon
LOX IMVI melanoma = tested on: LOX IMVI melanoma
M14 melanoma = tested on: M14 melanoma
MALME-3M melanoma = tested on: MALME-3M melanoma
MCF7 breast = tested on: MCF7 breast
MDA-N = tested on: MDA-N
MOLT-4 leukemia = tested on: MOLT-4 leukemia
NCI-H23 lung = tested on: NCI-H23 lung
OVCAR-8 ovarian = tested on: OVCAR-8 ovarian
PC-3 prostate = tested on: PC-3 prostate
RPMI-8226 leukemia = tested on: RPMI-8226 leukemia
SF-268 CNS = tested on: SF-268 CNS
SF-295 CNS = tested on: SF-295 CNS
SK-MEL-28 melanoma = tested on: SK-MEL-28 melanoma
SK-MEL-5 melanoma = tested on: SK-MEL-5 melanoma
SK-OV-3 ovarian = tested on: SK-OV-3 ovarian
SN12C renal = tested on: SN12C renal
SNB-75 CNS = tested on: SNB-75 CNS
SR leukemia = tested on: SR leukemia
SW-620 colon = tested on: SW-620 colon
T-47D breast = tested on: T-47D breast
TK-10 renal = tested on: TK-10 renal
UACC-257 melanoma = tested on: UACC-257 melanoma
UACC-62 melanoma = tested on: UACC-62 melanoma
A498 renal = tested on: A498 renal
ACHN renal = tested on: ACHN renal
BT-549 breast = tested on: BT-549 breast
HCT-116 colon = tested on: HCT-116 colon
HOP-92 NSCLC = tested on: HOP-92 NSCLC
HS 578T breast = tested on: HS 578T breast
MDA-MB-231 breast = tested on: MDA-MB-231 breast
MDA-MB-435 = tested on: MDA-MB-435
NCI-H226 lung = tested on: NCI-H226 lung
NCI-H460 lung = tested on: NCI-H460 lung
NCI-H522 lung = tested on: NCI-H522 lung
NCI/ADR-RES ovarian = tested on: NCI/ADR-RES ovarian
OVCAR-3 ovarian = tested on: OVCAR-3 ovarian
OVCAR-4 ovarian = tested on: OVCAR-4 ovarian
OVCAR-5 ovarian = tested on: OVCAR-5 ovarian
RXF 393 renal = tested on: RXF 393 renal
SF-539 CNS = tested on: SF-539 CNS
SK-MEL-2 melanoma = tested on: SK-MEL-2 melanoma
SNB-19 CNS = tested on: SNB-19 CNS
U251 CNS = tested on: U251 CNS
UO-31 renal = tested on: UO-31 renal

COc1ccc(C2=C(OC(=O)N(C)C)c3cccn3-c3cc(C(F)(F)F)ccc3S2)cc1
> 10 µM: TGI (786-0 renal) | TGI (A549 NSCLC) | TGI (CAKI-1 renal) | TGI (CCRF-CEM leukemia) | TGI (COLO 205 colon) | TGI (DU-145 prostate) | TGI (EKVX NSCLC) | TGI (HCC-2998 colon) | TGI (HCT-15 colon) | TGI (HL-60(TB) leukemia) | TGI (HOP-62 NSCLC) | TGI (HT29 colon) | TGI (IGROV1 ovarian) | TGI (K-562 leukemia) | TGI (KM12 colon) | TGI (LOX IMVI melanoma) | TGI (M14 melanoma) | TGI (MALME-3M melanoma) | TGI (MCF7 breast) | TGI (MDA-N) | TGI (MOLT-4 leukemia) | TGI (NCI-H23 lung) | TGI (OVCAR-8 ovarian) | TGI (PC-3 prostate) | TGI (RPMI-8226 leukemia) | TGI (SF-268 CNS) | TGI (SF-295 CNS) | TGI (SK-MEL-28 melanoma) | TGI (SK-MEL-5 melanoma) | TGI (SK-OV-3 ovarian) | TGI (SN12C renal) | TGI (SNB-75 CNS) | TGI (SR leukemia) | TGI (SW-620 colon) | TGI (T-47D breast) | TGI (TK-10 renal) | TGI (UACC-257 melanoma) | TGI (UACC-62 melanoma)

C=CC[C@H]1[C@@H](O[Si](C)(C)C(C)(C)C)[C@H](n2ccc(=O)[nH]c2=O)O[C@@H]1CO[Si](C)(C)C(C)(C)C
5.41 µM: TGI (ACHN renal)
4.44 µM: TGI (U251 CNS)
8.66 µM: TGI (MOLT-4 leukemia)
2.96 µM: TGI (HT29 colon)
3.93 µM: TGI (NCI-H522 lung) | TGI (OVCAR-8 ovarian) | TGI (SF-295 CNS)
4 µM: TGI (HOP-62 NSCLC)
3.23 µM: TGI (M14 melanoma)
5.4 µM: TGI (MDA-MB-231 breast)
2.68 µM: TGI (SK-OV-3 ovarian)
4.83 µM: TGI (EKVX NSCLC)
3.5 µM: TGI (UACC-62 melanoma)
7.67 µM: TGI (BT-549 breast)
9.04 µM: TGI (MALME-3M melanoma)
3.49 µM: TGI (KM12 colon)
6.1 µM: TGI (K-562 leukemia)
2.59 µM: TGI (HL-60(TB) leukemia)
18.6 µM: TGI (NCI-H226 lung)
6.03 µM: TGI (RPMI-8226 leukemia)
3.4 µM: TGI (COLO 205 colon)
5.97 µM: TGI (OVCAR-4 ovarian)
5.34 µM: TGI (UACC-257 melanoma)
3.65 µM: TGI (UO-31 renal)
5.8 µM: TGI (A549 NSCLC)
3.74 µM: TGI (HCC-2998 colon)
7.83 µM: TGI (A498 renal)
3.63 µM: TGI (HCT-15 colon) | TGI (RXF 393 renal)
16 µM: TGI (CCRF-CEM leukemia)
4.06 µM: TGI (NCI-H460 lung)
2.72 µM: TGI (HOP-92 NSCLC)
5.93 µM: TGI (NCI-H23 lung)
6.76 µM: TGI (SNB-19 CNS)
10.4 µM: TGI (SF-539 CNS)
5.95 µM: TGI (SR leukemia)
3.12 µM: TGI (OVCAR-3 ovarian)
6.05 µM: TGI (IGROV1 ovarian)
8.64 µM: TGI (SF-268 CNS)
7.02 µM: TGI (TK-10 renal)
3.11 µM: TGI (HCT-116 colon)
3.01 µM: TGI (786-0 renal) | TGI (SK-MEL-28 melanoma)
7.08 µM: TGI (SK-MEL-2 melanoma)
9.11 µM: TGI (T-47D breast)
4.42 µM: TGI (CAKI-1 renal)
4.36 µM: TGI (MDA-MB-435)
3.44 µM: TGI (LOX IMVI melanoma)
12.2 µM: TGI (HS 578T breast)
3.32 µM: TGI (SN12C renal)
5.89 µM: TGI (PC-3 prostate)
4.95 µM: TGI (NCI/ADR-RES ovarian)
3.91 µM: TGI (OVCAR-5 ovarian)
6.64 µM: TGI (DU-145 prostate)
3.8 µM: TGI (MCF7 breast)
3.18 µM: TGI (SK-MEL-5 melanoma)
3.39 µM: TGI (SW-620 colon)
3.97 µM: TGI (SNB-75 CNS)

COc1cc(C2CC(c3ccc(C)cc3)=NN2C=O)ccc1Oc1ccnc2cc(Cl)ccc12 (stereo unspecified)
> 50 µM: TGI (A549 NSCLC) | TGI (ACHN renal) | TGI (BT-549 breast) | TGI (CAKI-1 renal) | TGI (CCRF-CEM leukemia) | TGI (COLO 205 colon) | TGI (DU-145 prostate) | TGI (EKVX NSCLC) | TGI (HCC-2998 colon) | TGI (HCT-116 colon) | TGI (HCT-15 colon) | TGI (HL-60(TB) leukemia) | TGI (HOP-92 NSCLC) | TGI (HS 578T breast) | TGI (HT29 colon) | TGI (IGROV1 ovarian) | TGI (K-562 leukemia) | TGI (KM12 colon) | TGI (LOX IMVI melanoma) | TGI (M14 melanoma) | TGI (MALME-3M melanoma) | TGI (MCF7 breast) | TGI (MDA-MB-435) | TGI (MOLT-4 leukemia) | TGI (NCI-H226 lung) | TGI (NCI-H23 lung) | TGI (NCI-H460 lung) | TGI (NCI-H522 lung) | TGI (NCI/ADR-RES ovarian) | TGI (OVCAR-3 ovarian) | TGI (OVCAR-5 ovarian) | TGI (PC-3 prostate) | TGI (RPMI-8226 leukemia) | TGI (SF-268 CNS) | TGI (SK-MEL-28 melanoma) | TGI (SK-MEL-5 melanoma) | TGI (SK-OV-3 ovarian) | TGI (SN12C renal) | TGI (SNB-19 CNS) | TGI (SR leukemia) | TGI (SW-620 colon) | TGI (UACC-257 melanoma) | TGI (UACC-62 melanoma) | TGI (UO-31 renal)
43.8 µM: TGI (MDA-MB-231 breast)
23.5 µM: TGI (T-47D breast)
19.6 µM: TGI (786-0 renal)
27 µM: TGI (SF-539 CNS)
6.92 µM: TGI (SNB-75 CNS)
20.5 µM: TGI (RXF 393 renal)
inactive: GI50 (786-0 renal) 5.07 µM | GI50 (A498 renal) 5.73 µM | GI50 (A549 NSCLC) > 50 µM | GI50 (ACHN renal) 4.39 µM | GI50 (BT-549 breast) 3.96 µM | GI50 (CAKI-1 renal) > 50 µM | GI50 (CCRF-CEM leukemia) > 50 µM | GI50 (COLO 205 colon) > 50 µM | GI50 (DU-145 prostate) > 50 µM | GI50 (EKVX NSCLC) 7.75 µM | GI50 (HCC-2998 colon) > 50 µM | GI50 (HCT-116 colon) 2.5 µM | GI50 (HCT-15 colon) > 50 µM | GI50 (HL-60(TB) leukemia) > 50 µM | GI50 (HOP-62 NSCLC) 1.68 µM | GI50 (HOP-92 NSCLC) 9.1 µM | GI50 (HS 578T breast) 1.82 µM | GI50 (HT29 colon) > 50 µM | GI50 (IGROV1 ovarian) 24.8 µM | GI50 (K-562 leukemia) > 50 µM | GI50 (KM12 colon) > 50 µM | GI50 (LOX IMVI melanoma) > 50 µM | GI50 (M14 melanoma) 14.2 µM | GI50 (MALME-3M melanoma) > 50 µM | GI50 (MCF7 breast) > 50 µM | GI50 (MDA-MB-231 breast) 4.23 µM | GI50 (MDA-MB-435) > 50 µM | GI50 (MOLT-4 leukemia) > 50 µM | GI50 (NCI-H226 lung) 1.81 µM | GI50 (NCI-H23 lung) 6.93 µM | GI50 (NCI-H460 lung) > 50 µM | GI50 (NCI-H522 lung) 2.72 µM | GI50 (NCI/ADR-RES ovarian) > 50 µM | GI50 (OVCAR-3 ovarian) > 50 µM | GI50 (OVCAR-5 ovarian) > 50 µM | GI50 (PC-3 prostate) > 50 µM | GI50 (RPMI-8226 leukemia) > 50 µM | GI50 (RXF 393 renal) 4.16 µM | GI50 (SF-268 CNS) 11.3 µM | GI50 (SF-295 CNS) 4.41 µM | GI50 (SF-539 CNS) 3.85 µM | GI50 (SK-MEL-2 melanoma) 7.39 µM | GI50 (SK-MEL-28 melanoma) > 50 µM | GI50 (SK-MEL-5 melanoma) > 50 µM | GI50 (SK-OV-3 ovarian) 7.2 µM | GI50 (SN12C renal) > 50 µM | GI50 (SNB-19 CNS) 9.53 µM | GI50 (SNB-75 CNS) 1.13 µM | GI50 (SR leukemia) > 50 µM | GI50 (SW-620 colon) > 50 µM | GI50 (T-47D breast) 2.9 µM | GI50 (U251 CNS) 6.5 µM | GI50 (UACC-257 melanoma) > 50 µM | GI50 (UACC-62 melanoma) 11.2 µM | GI50 (UO-31 renal) > 50 µM
21.4 µM: TGI (U251 CNS)
23.1 µM: TGI (A498 renal)
18.3 µM: TGI (SK-MEL-2 melanoma)
8.95 µM: TGI (HOP-62 NSCLC)
23.7 µM: TGI (SF-295 CNS)
